Experimental data as given in ChEMBL document CHEMBL5154870, “Discovery of novel glutaminase 1 allosteric inhibitor with 4-piperidinamine linker and aromatic heterocycles” (Eur J Med Chem, 2022).
Calls of active or inactive are those of the source. The rule behind the calls is not given here.

Legend:
[1] = target: T1, Glutaminase kidney isoform, mitochondrial (Homo sapiens) (UniProt O94925); details: HCT-116, filed as negative allosteric modulator, dose 100-300 nM, time 12.0 hrs
T1 sequence (whole entry): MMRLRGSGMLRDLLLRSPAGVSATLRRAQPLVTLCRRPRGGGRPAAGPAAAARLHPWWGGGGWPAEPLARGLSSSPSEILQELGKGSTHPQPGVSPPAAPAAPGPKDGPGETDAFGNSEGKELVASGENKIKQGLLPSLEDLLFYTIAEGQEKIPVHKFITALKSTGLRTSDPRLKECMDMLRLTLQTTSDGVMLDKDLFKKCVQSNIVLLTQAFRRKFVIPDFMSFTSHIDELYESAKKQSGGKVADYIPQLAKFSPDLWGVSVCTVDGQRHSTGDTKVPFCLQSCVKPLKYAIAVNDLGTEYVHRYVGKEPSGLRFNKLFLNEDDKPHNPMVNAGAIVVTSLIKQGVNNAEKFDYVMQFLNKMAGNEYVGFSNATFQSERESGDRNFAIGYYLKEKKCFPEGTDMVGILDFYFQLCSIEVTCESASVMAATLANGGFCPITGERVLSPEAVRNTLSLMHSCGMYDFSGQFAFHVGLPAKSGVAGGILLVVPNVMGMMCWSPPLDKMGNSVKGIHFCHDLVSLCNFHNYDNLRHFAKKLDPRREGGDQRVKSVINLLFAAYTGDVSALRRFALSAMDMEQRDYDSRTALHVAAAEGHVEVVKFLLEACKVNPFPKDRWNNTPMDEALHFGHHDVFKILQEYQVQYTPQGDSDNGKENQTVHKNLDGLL

[2] = Toxicity in nude mouse xenografted with human HCT-116 cells assessed as liver damage by measuring edema and atrophy at 50 to 100 mg/kg, ip measured after 21 days by H and E staining based analysis; type: organism-based; details: in vivo, 504 h, dose 50-100 mg/kg, time 21 day
[3] = test system: HCT-116; test: Antiproliferative activity against human HCT-116 cells overexpressing GLS1 assessed as inhibition of cell proliferation measured after 72 hrs by MTT assay; type: functional, cell-based; details: HCT-116, 72 h
[4] = MRT (0 to infinity) in Sprague-Dawley rat at 10 mg/kg, ip measured for 72 hrs by LC-MS/MS analysis; type: ADME, organism-based; details: in vivo
[5] = AUC (0 to infinity) in Sprague-Dawley rat at 5 mg/kg, iv measured for 72 hrs by LC-MS/MS analysis; type: ADME, organism-based; design: time 72 hrs, dose 5 mg/kg, route iv; details: in vivo
[6] = Metabolic stability in human liver microsomes assessed as half life at 10 uM by LC-MS/MS analysis; type: ADME, Microsome; details: liver microsomes
[7] = Apparent volume of distribution in Sprague-Dawley rat at 10 mg/kg, ip measured for 72 hrs by LC-MS/MS analysis; type: ADME, organism-based; details: in vivo
[8] = test system: MDA-MB-436; test: Antiproliferative activity against human MDA-MB-436 cells overexpressing GLS1 assessed as inhibition of cell proliferation measured after 72 hrs by MTT assay; type: functional, cell-based; details: MDA-MB-436, 72 h
[9] = target: T2, Glutaminase kidney isoform, mitochondrial (Homo sapiens, UniProt O94925); test: Allosteric inhibition of human GLS1 using glutamine as substrate incubated for 60 mins by NADH/NADPH-based absorbance analysis
T2 sequence (O94925 whole entry): T1 sequence (whole entry)

[10] = Toxicity in nude mouse xenografted with human HCT-116 cells assessed as heart damage by measuring edema and atrophy at 50 to 100 mg/kg, ip measured after 21 days by H and E staining based analysis; type: organism-based; details: in vivo, 504 h, dose 50-100 mg/kg, time 21 day
[11] = Toxicity in nude mouse xenografted with human HCT-116 cells assessed as kidney damage by measuring edema and atrophy at 50 to 100 mg/kg, ip measured after 21 days by H and E staining based analysis; type: organism-based; details: in vivo, 504 h, dose 50-100 mg/kg, time 21 day
[12] = test system: HCT-116; test: Induction of apoptosis in human HCT-116 cells assessed as late apoptotic cells at 30 nM measured after 24 hrs by Annexin V-FITC/PI staining based flow cytometry method (reference value: 3.55 %); type: functional
[13] = test system: HCT-116; test: Induction of apoptosis in human HCT-116 cells assessed as early apoptotic cells at 50 nM measured after 24 hrs by Annexin V-FITC/PI staining based flow cytometry method (reference value: 4.65 %); type: functional
[14] = test system: H22; test: Antiproliferative activity against mouse H22 cells assessed as inhibition of cell proliferation measured after 72 hrs by MTT assay; type: functional, cell-based; details: H22, 72 h
[15] = target: T1, Glutaminase kidney isoform, mitochondrial (Homo sapiens); details: HCT-116, filed as negative allosteric modulator, dose 100-300 nM, time 12.0 hrs; remark: listed apart in the source
[16] = Bioavailability in Sprague-Dawley rat at 10 mg/kg, ip measured for 72 hrs by LC-MS/MS analysis; type: ADME, organism-based; details: in vivo
[17] = test system: HCT-116; test: Induction of apoptosis in human HCT-116 cells assessed as late apoptotic cells at 50 nM measured after 24 hrs by Annexin V-FITC/PI staining based flow cytometry method (reference value: 3.55 %); type: functional
[18] = test system: HCT-116; test: Induction of apoptosis in human HCT-116 cells assessed as necrotic cells at 50 nM measured after 24 hrs by Annexin V-FITC/PI staining based flow cytometry method (reference value: 0.48 %); type: functional
[19] = Metabolic stability in human liver microsomes assessed as intrinsic clearance at 10 uM by LC-MS/MS analysis; type: ADME, Microsome; details: read-out: CLH
[20] = Toxicity in nude mouse xenografted with human HCT-116 cells assessed as spleen damage by measuring edema and atrophy at 50 to 100 mg/kg, ip measured after 21 days by H and E staining based analysis; type: organism-based; details: in vivo, 504 h, dose 50-100 mg/kg, time 21 day
[21] = test system: CT26; test: Antiproliferative activity against mouse CT26 cells overexpressing GLS1 assessed as inhibition of cell proliferation measured after 72 hrs by MTT assay; type: functional, cell-based; details: CT26, 72 h
[22] = test system: HCT-116; test: Induction of apoptosis in human HCT-116 cells assessed as late apoptotic cells at 200 nM measured after 24 hrs by Annexin V-FITC/PI staining based flow cytometry method (reference value: 3.55 %); type: functional
[23] = Metabolic stability in human plasma assessed as parent compound remaining at 1 uM measured after 2 hrs by LC-MS/MS analysis; type: ADME, cell-free; details: read-out: Stability
[24] = Toxicity in nude mouse xenografted with human HCT-116 cells assessed as lung damage by measuring edema and atrophy at 50 to 100 mg/kg, ip measured after 21 days by H and E staining based analysis; type: organism-based; details: in vivo, 504 h, dose 50-100 mg/kg, time 21 day
[25] = Apparent clearance in Sprague-Dawley rat at 10 mg/kg, ip measured for 72 hrs by LC-MS/MS analysis; type: ADME, organism-based; details: in vivo
[26] = target: T1, Glutaminase kidney isoform, mitochondrial (Homo sapiens); details: HCT-116, filed as negative allosteric modulator, dose 100-300 nM, time 12.0 hrs; remark: listed apart in the source
[27] = MRT (0 to infinity) in Sprague-Dawley rat at 5 mg/kg, iv measured for 72 hrs by LC-MS/MS analysis; type: ADME, organism-based; details: in vivo
[28] = target: T1, Glutaminase kidney isoform, mitochondrial (Homo sapiens); details: filed as negative allosteric modulator
Description: Binding affinity to human GLS1 assessed as stabilization of protein by measuring change in melting temperature by protein thermal shift assay

[29] = test system: HCT-116; test: Antitumor activity against human HCT-116 cells xenografted in BALB/c SPF mouse assessed as tumor growth inhibition at 50 mg/kg, ip administered BID for 21 days; type: functional; details: HCT-116, 504 h, time 21 day, read-out: TGI

inhibition [1]: Active
IC50 [3]: 51 nM
MRT inf [4]: 13 h
AUC(0-inf) [5]: 7310 ng·h/mL
half-life at 10 µM [6]: 3.24 h
Vd/F [7]: 36.1 L/kg
IC50 [8]: 370 nM
IC50 [9]: 11.9 nM
inhibition [15]: Active
bioavailability [16]: 20.9%
microsomal CLint at 10 µM [19]: 8.95 µL/min/mg
IC50 [21]: 320 nM
remaining at 2 h, 1 µM [23]: 96%
CL/F [25]: 48.8 mL/min/kg
inhibition [26]: Active
MRT inf [27]: 4.97 h
ΔTm [28]: 14.9 °C
Compound: O=C(Cc1ccccc1)Nc1nnc(NC2CCN(c3nnc(NC(=O)c4nccn4Cc4ccc(C(F)(F)F)cc4)s3)CC2)s1
Activity [2]: Non-Toxic
Activity [10]: Non-Toxic
Activity [11]: Non-Toxic
Activity [12]: 4.99%
Activity [13]: 23.4%
IC50 [14]: 10800 nM
Activity [17]: 5.4%
Activity [18]: 0.01%
Activity [20]: Non-Toxic
Activity [22]: 13.2%
Activity [24]: Non-Toxic
inhibition in vivo at 50 mg/kg [29]: 35.5%
